This is an account of results in paper doi:10.1101/415984v3 (biorxiv, 2018).

Molecules are shown by their SMILES.

The target in test [1] is T1, dFABP (Drosophila brain-type FABP) (Drosophila melanogaster, UniProt Q9VGM2).
T1 sequence (Q9VGM2 1-130): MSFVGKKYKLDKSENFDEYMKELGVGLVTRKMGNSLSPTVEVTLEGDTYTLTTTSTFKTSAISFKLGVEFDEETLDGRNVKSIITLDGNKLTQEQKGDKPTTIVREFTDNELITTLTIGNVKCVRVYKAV
Kind of test: intrinsic tyrosine fluorescence melting. Format: binding. The note with it: GuHCl-purified dFABP; protein:OA 1:2; 20 mM Tris pH 8.0, 1 mM beta-ME.

Test [2] deals with T1, dFABP (Drosophila brain-type FABP). Briefly: isothermal titration calorimetry. Format: binding.

What is called Kd is the concentration at which binding is half-saturated. As to `CCCCCCCC/C=C\CCCCCCCC(=O)O` [OA, oleic acid], the “change in Tm” value in test [1] was ~ 5 °C. The molecule also returned a Kd in test [2] of about 1600 nM.
